These results are taken from patent EP4483866A1, “PHARMACEUTICAL COMPOSITIONS FOR THE TREATMENT OR PREVENTION OF CANCER” (Makrolife Biotech GmbH, priority 2023, dated 2025).

The test system of experiment [1] is HepG2, HUVEC, PaCA-2, MDA-MB-231, MCF-7, T24, AsPc-1, Panc-1. As to the kind of experiment: Cell Viability Assay (MTT), tumor cells with MLB007R1 polarized macrophages. The experiment is classed as cell-based, human. Particulars: for cell death: 60 µg/ml, all tumor models. An excerpt: The following tumor models and cell lines have been used to proof the anti-tumoral properties of the derivatives of the invention: • Diagram A: HepG2 (human liver cancer cells), • Diagram B: HUVEC (human umbilical vein endothelial cells, • Diagram C: PaCA-2 (human pancreatic cancer cells), • Diagram D: MDA-MB-231 (highly aggressive, invasive and poorly differentiated triple-negative human breast cancer cells), • Diagram E: MCF-7 (human breast cancer cells), • Diagram F: T24 (human urinary bladder cancer cells), • Diagram G: AsPc-1 (human pancreatic tumor cells) and • Diagram H: Panc-1 (human pancreatic cancer cells).
In the examples, the resveratrol derivative MLB007R1 was applied at concentrations of 0 µg/ml, 10 µg/ml, 20 µg/ml, 40 µg/ml and 60 µg/ml. As a control, an underivatized agent was used at a concentration of 60 µg/ml. The dead cells were measured in percentage after 0, 12, 24 and 36 hours.
Tumor cell lines HUVEC (human umbilical vein endothelial cells), paCA-2 (human pancreatic cancer cells), MDA-MB-231 (highly aggressive, invasive and poorly differentiated triple-negative breast cancer cells), HepG2 (human liver cancer cells), MCF-7 (breast cancer cells), T24 (human urinary bladder cancer cells), AsPc-1 (human pancreatic tumor cells), Panc-1 (human pancreatic cancer cells) were seeded in 96-well plates ([…]) and divided into two groups: the untreated control group and the active compound resveratrol derivative treated group. Cells in the normal group were incubated under normal growth conditions. In the resveratrol derivative (MLB007R1) treated group, the cells were pre-incubated with differentiated and polarized macrophages (5x10^5 cells/well) for 24 hours with different final concentrations of the resveratrol derivative.
Wells were then washed three times with phosphate buffered saline (PBS) and incubated again for 4 hours with […] RPMI 1640 containing 10% fetal bovine serum. The medium was then replaced with fresh medium serially incubated with different concentrations of the lead compound and incubated with the macrophages, and the plates were incubated for 12, 24, and 36 hours. The medium containing the resveratrol derivative polarized macrophages was replaced every 12 h with freshly prepared medium. Wells were then washed three times with PBS and incubated again for 4 h, adding […] of RPMI 1640 and […] of MTT solution (5 mg/mL). After removal of the culture medium, […] of DMSO was added to dissolve the precipitate, and the absorbance at 570 nm of the resulting solutions was measured using a CODA Automated EIA Analyzer (Bio-Rad Laboratories, Hercules, CA, USA).
The cytotoxicity of the resveratrol derivative compound was evaluated on all cancer cell lines using the MTT method.

The subject of experiment [2] is ovarian cancer cells (cell line A2780). As to the kind of experiment: Viability and apoptosis of ovarian cancer cells with polarized macrophages (interference light microscopy, PI). It is filed as cell-based, human. How it is done: Diagrams A and C show as a control the cells after treatment with DMSO.
Diagrams B and D show the cells treated with 60 µg/ml MLB007R1 after 12 h.
The present study explores the response of ovarian cancer cells to MLB007R1. MLB007R1 macrophages inhibited growth and induced death in human ovarian cancer cell lines. In a further course, A2780 cells were co-incubated with MLB007R1 derivative polarized macrophages and treated. MLB007R1 induces cell death and inhibits ovarian cancer cell growth. Treatment of A2780 cells with MLB007R1 induced cell death after 12 hours. Proliferation of A2780 cultures treated with MLB007R1 was analyzed over 12 hours of continuous treatment.
Cells were plated out and 60 µg/ml MLB007R1 treated macrophages were added to the culture medium 12 h after plating out (24 h preincubation period). The percentage of apoptotic cells was determined at the indicated time points by propidium iodide (PI) staining on semipermeabilized cells as previously described. In this assay, apoptotic cells are identified by hypodiploid DNA content resulting from DNA fragmentation. To assess viability, intact cells were harvested, stained with PI, and analyzed for their plasma membrane permeability to PI by flow cytometry. Cell number was determined by interference light microscopy. The ovarian cancer cells (A2780) were incubated with 60µg/ml MLB007R1 concentration treated macrophages. […]

The next experiment deals with MCF-7, HUVEC, HepG2. Put plainly: Determination of cell growth and viability (cell count, trypan blue exclusion). The experiment is classed as cell-based, human. How it is done: The tumor models utilized in these experiments are as follows: • Diagram A: MCF-7 (breast cancer cells), • Diagram B: HUVEC (human umbilical vein endothelial cells) and • Diagram C: HepG2 (human liver cancer cells).
Cell growth of an untreated and resveratrol derivative (MLB007R1) treated cell culture was compared. Tumor cell lines (MCF-7 (breast cancer cells), HUVEC (human umbilical vein endothelial cells) and HepG2 (human liver cancer cells)) were cultured in RPMI 1640 cell medium and exposed to 60 µg/ml resveratrol derivative polarized macrophages (10 000/ well). Cell growth, cell cycle disruption and apoptosis were assessed using the trypan blue exclusion method.
Cells were seeded in 24-well tissue culture plates (Falcon) at a concentration of 1×10^5 cells/ml and allowed to adhere overnight. […] Cell growth and viability were assessed every 12 hours. Trypsinized cells were manually counted using a hemocytometer, and cell viability was determined using the trypan blue dye exclusion assay.
Initially, cell number was measured after incubation to 200 000 cells per culture.
The kinetics of cell growth on human MCF-7 breast cancer cells were cultured and measured for 12, 24 and 36 hours in culture medium containing the indicated drug-polarized macrophages. […] Tumor cell viability and cell growth were determined using the trypan blue assay and cell count, respectively. […]

The test system of another experiment is MCF-7 cells. Put plainly: Induction of apoptosis assessed by confocal fluorescence microscopy (PI staining). It is filed as cell-based, human. As to conditions: for cell death: 12h. How it is done:
To confirm the flow cytometry results, the induction of apoptotic cell death by our MLB007R1 compound was examined by confocal fluorescence microscopy. MCF-7 tumor cells were treated with the compound-polarized macrophages (10 000/well) at concentrations of 0, 20, 40, and 60 µg/ml for 12 hours. Induction of apoptotic cell death was accompanied by characteristic ultrastructural changes, such as chromatin condensation, nuclear fragmentation, and collapse of the cell into membrane-bound apoptotic bodies.
Confocal laser scanning microscopy (CLSM). Analysis of apoptosis-like morphological changes was performed on cells grown on coverslips and fixed with 4% paraformaldehyde in PBS (pH 7.4) for 10 minutes at room temperature (RT). After washing in PBS, the samples were stained for nuclear labeling with 2 µg/ml PI and 0.1 mg/ml RNase for 5 minutes at RT. Coverslips were mounted on glass slides in the presence of Glycerol/PBS at a ratio of 4:1 and observed with a LEICA TCS 4D confocal laser scanning microscope equipped with an argon/cripton laser and oil immersion objectives. The excitation and emission wavelengths were 488 and 590 nm, respectively. The images were recorded in pseudocolor.

For the next experiment, the system named is HepG2. As to conditions: after 24 hours at 60 µM; cited from earlier work.

For the compound `C=COC(=O)COc1ccc(C=Cc2cc(OCC(=O)OC=C)cc(OCC(=O)OC=C)c2)cc1` [MLB007R1, divinyl 2,2'-((5-(4-(2-oxo-2-(vinyloxy)ethoxy)styryl)-1,3-phenylene)bis(oxy))diacetate], the cell death was 70-85% in experiment [1] (after 12h); 85-92% in experiment [1] (after 24 hours); “approximately 96%” in experiment [1] (after 36h); greater than 50% in the experiment with MCF-7 cells (Diagram B: 20 µg/ml MLB007R1 treated macrophages); greater than 65% with MCF-7 cells (Diagram C: 20 µg/ml MLB007R1 treated macrophages); greater than 80% in the experiment on MCF-7 cells (Diagram D: 60 µg/ml MLB007R1 treated macrophages). Moreover, in experiment [2] (12 hours of continuous treatment), the “proliferation of A2780 cultures” value is listed as “No further growth occurred”. For the same compound, the “ovarian cancer cells killed by polarized macrophages” value in experiment [2] (macrophages incubated in 60µg/ml, 12 h) was “more than 80%”. Also, the “number of tumor cells” value in the experiment with MCF-7, HUVEC, HepG2 (60 µg/ml, after 12 hours, polarized macrophages) is recorded as “dramatic decrease”. Besides, the decreased cell number result in the experiment with MCF-7, HUVEC, HepG2 (after only 12 hours of incubation) is on record as “more than 90%”. In addition, in the experiment on MCF-7 cells (20 µg/ml (B), 12 hours), the apoptosis induction entry is “No to little apoptosis induction”. Moreover, in the experiment with MCF-7 cells (40 (C) and 60 (D) µg/ml, 12 hours), the “number of apoptotic cells” value is on record as “increased the number of apoptotic cells”.
Turning to `Oc1ccc(C=Cc2cc(O)cc(O)c2)cc1` [resveratrol, 3,4',5-trihydroxy-stilbene, reference compound], the “effect on tumor cells” value in experiment [1] (control at 60 µg/ml, compared with resveratrol derivative) is given as “significantly higher”. Besides, the “decreased HepG2 cell number” value in the experiment with HepG2 is on record as “approximately 70%”.
